Counter-ions that a name gives are not always drawn.
SMILES | melting point
CN1CCCN(c2cccc([N+](=O)[O-])c2)CC1 | 163.1 to 164.4 °C
CN1CCN(c2cnc3ccccc3c2)CC1 | 116.5 to 117 °C
c1ccc2ncc(N3CCNCC3)cc2c1 | 87.7 to 88.5 °C
C=COc1cncc(N2CCN(C)CC2)c1 (as salt: fumaric acid salt) | 136.4 to 138.2 °C
O=S(=O)(Oc1cncc(N2CCCNCC2)c1)C(F)(F)F (as salt: fumaric acid salt) | 154 to 156 °C
CC1CCN(c2ccc(Cl)nn2)CCCN1 (centres unmarked) (as salt: fumaric acid salt) | 166 to 168 °C
c1ncc(N2CCCNCC2)cc1OCC1CCCCC1 (as salt: fumaric acid salt) | 163.3 to 164.5 °C
O=[N+]([O-])c1cccc(N2CCCNCC2)c1 (as salt: fumaric acid salt) | 163.1 to 164.4 °C
c1ccn(-c2cncc(N3CCCNCC3)c2)c1 (as salt: fumaric acid salt) | 174 to 175 °C
CN1CCCN(c2ccc(Cl)nn2)CC1 (as salt: fumaric acid salt) | 171 to 172 °C
CN1CCCN(c2ccc(-c3ccccc3)nn2)CC1 (as salt: fumaric acid salt) | 185 to 186 °C
CN1CCCN(c2cccnn2)CC1 (as salt: fumaric acid salt) | 137.8 to 139.3 °C
Cc1ccc(N2CCCN(C)CC2)nn1 (as salt: fumaric acid salt) | 152 to 153 °C
c1ccc(CN2CCCN(c3cccnc3)CC2)cc1 (as salt: fumaric acid salt) | 148.4 to 149 °C
CCN1CCCN(c2cccnc2)CC1 (as salt: fumaric acid salt) | 145.3 to 147.5 °C
c1ccc2c(c1)ccn2-c1cncc(N2CCCNCC2)c1 (as salt: fumaric acid salt) | 193 to 195 °C
c1ccc(-c2ccc(N3CCCNCC3)nn2)cc1 (as salt: fumaric acid salt) | 187 to 189 °C

SMILES | melting point
C=COc1cncc(N2CCNCC2)c1 (as salt: fumaric acid salt) | 136.4 to 138.2 °C
c1ccc(-c2cncc(N3CCNCC3)c2)cc1 (as salt: fumaric acid salt) | 167.5 to 168.5 °C
c1ncc(N2CCCNCC2)cc1OC1CCCC1 (as salt: fumaric acid salt) | 148 to 150 °C
c1cc(N2CCCC2)ncc1N1CCCNCC1 (as salt: fumaric acid salt) | 148.6 to 150.5 °C
Clc1nc2ccccc2nc1N1CCCNCC1 (as salt: fumaric acid salt) | 136.2 to 139.9 °C
CCCCOc1cncc(N2CCN(C)CC2)c1 (as salt: fumaric acid salt) | 136.9 to 139.2 °C
C=COc1cncc(N2CCCNCCC2)c1 (as salt: fumaric acid salt) | 142 to 144 °C
c1ccc2c(N3CCCNCC3)cncc2c1 (as salt: fumaric acid salt) | 160 to 162 °C
CN1CCN(c2cccnc2)CC1 (as salt: fumaric acid salt) [Compound 1A, 4-Methyl-1-(3-pyridyl)-piperazine] | 144.5 to 145.9 °C
c1cncc(N2CCNCC2)c1 (as salt: fumaric acid salt) [Compound 1B, 1-(3-Pyridyl)-piperazine] | 161.7 to 164.8 °C
CCOc1cncc(N2CCNCC2)c1 (as salt: fumaric acid salt) [Compound 1D, 1-(5-Ethoxy-3-pyridyl)piperazine] | 160 to 161.2 °C
c1cncc(N2CCCNCC2)c1 (as salt: fumaric acid salt) [Compound 1F, 1-(3-Pyridyl)-homopiperazine] | 172.1 to 172.9 °C
COc1cncc(N2CCCNCC2)c1 (as salt: fumaric acid salt) [Compound 1H, 1-(5-Methoxy-3-pyridyl)-homopiperazine] | 161 to 162 °C
Clc1ccc(N2CCCNCC2)nn1 (as salt: fumaric acid salt) [Compound 1K, 1-(6-Chloro-3-pyridazinyl)-homopiperazine] | 165 to 166 °C
COc1cncc(N2CCN(C)C2)c1 (as salt: fumaric acid salt) [Compound 1M, 1-(5-Methoxy-3-pyridyl)-3-methyl-imidazolidine] | 139 to 142 °C
CCCCOc1cncc(N2CCNCC2)c1 (as salt: fumaric acid salt) [Compound 2D, 1-(5-Butoxy-3-pyridyl)piperazine] | 149.4 to 151.7 °C
CN1CCCN(c2cnc3ccccc3c2)CC1 (as salt: fumaric acid salt) [Compound 2E, 4-Methyl-1-(3-quinolinyl)-homopiperazine] | 170 to 171 °C

The next lines start with the values.

melting point | SMILES
165 to 167 °C | Clc1ccc(N2CCCNCC2)cn1
149.5 to 151.8 °C | CCCCCCOc1cncc(N2CCCNCC2)c1 (as salt: fumaric acid salt)
172.5 to 174 °C | C#Cc1cncc(N2CCCNCC2)c1 (as salt: fumaric acid salt)
139.3 to 140.4 °C | CCOCCOc1cncc(N2CCCNCC2)c1 (as salt: fumaric acid salt)
155.5 to 156.7 °C | CCCCCOc1cncc(N2CCCNCC2)c1 (as salt: fumaric acid salt)
165.4 to 167.7 °C | Nc1cccc(N2CCCNCC2)c1 (as salt: fumaric acid salt)
132.8 to 136.6 °C | CCCCCCCOc1cncc(N2CCCNCC2)c1 (as salt: fumaric acid salt)
164.1 to 165.7 °C | COc1cccc(N2CCCNCC2)c1 (as salt: fumaric acid salt)
165 °C (dec.) | Oc1cccc(N2CCCNCC2)c1 (as salt: fumaric acid salt)
160 to 162 °C | c1cncc(-c2cncc(N3CCCNCC3)c2)c1 (as salt: fumaric acid salt)
127 to 128 °C | COc1ccc(N2CCCNCC2)cn1 (as salt: fumaric acid salt)
150 to 152 °C | COc1cc(N2CCCNCC2)cnc1OC (as salt: fumaric acid salt)
117 to 118 °C | COc1cnc(Cl)c(N2CCCNCC2)c1 (as salt: fumaric acid salt)
150 to 151 °C | CCCCOc1cncc(N2CCCNCC2)c1 (as salt: fumaric acid salt)
143 to 144 °C | C=COc1cncc(N2CCCNCC2)c1 (as salt: fumaric acid salt)
149 to 151 °C | Cc1cnc(C)c(N2CCCNCC2)n1 (as salt: fumaric acid salt)
162.5 to 164.5 °C | CCOc1cncc(N2CCCNCCC2)c1 (as salt: fumaric acid salt)
150 to 152 °C | CCCOc1cncc(N2CCCNCCC2)c1 (as salt: fumaric acid salt)
181.7 to 183.2 °C | CCOc1cc(N2CCCNCC2)cnc1Br (as salt: fumaric acid salt)
144.4 to 146.6 °C | Clc1cncc(N2CCCNCC2)c1 (as salt: fumaric acid salt)
139.9 to 142 °C | CC(C)CCOc1cncc(N2CCCNCC2)c1 (as salt: fumaric acid salt)
180.7 to 185.4 °C | Brc1cncc(N2CCCNCC2)c1 (as salt: fumaric acid salt)

Source: patent US6897219B2, “Heteroaryl diazacycloalkanes, their preparation and use” (priority 1997, dated 2005)
